{"source": "patent US7094405B1", "about": "“Peptides which elicit a high neutralizing antibody titer, cytotoxic T lymphocyte response and T helper cell response in a broad range of MHC type recipients” (priority 1986, dated 2006)", "key": {"[1]": {"test_system": "peripheral blood lymphocytes of HIV-positive, influenza positive humans", "settings": "cited from earlier work; for tested cases with significant IL-2 responses: peripheral blood lymphocytes of HIV-positive, influenza positive humans, previous study (42)"}, "[2]": {"test_system": "gp160-expressing 15-12 BALB/c fibroblast cell line", "format": "cell-based", "settings": "spleen cells of B10.A(5R) mice immunized with 20 nmoles PCLUS4-18, restimulated 6 days", "protocol": "The resulting effector cells were tested on the gp160-expressing 15-12 BALB/c fibroblast cell line or on neo-only transfected fibroblast cells (not shown) as targets (FIG. 9B). […] SEM of triplicate wells was less than 7.3% of the mean."}, "[3]": {"test_system": "BALB/c.3T3 transfectants expressing the whole gp160 protein (cell line 15-12) or P18 pulsed 18neo cells", "format": "in vivo, mice", "protocol": "Mice 8-20 weeks old were immunized subcutaneously at the tail base with 20 nmoles of each peptide mixed with QS21 (15 μg), the highly purified saponin fraction from the soap bark tree Quillaja saponaria, which retains the greatest adjuvant activity but is non-toxic (103). […] Cytolytic activity of in vitro secondary CTL was measured as described previously (104) using a 6 hr. assay with ^51Cr-labeled targets. […] Maximum release was determined from supernatants of cells that were lysed by the addition of 5% Triton X-100. Spontaneous release was determined from targets cells incubated without added effectors cells. The assay was performed in triplicate, with 5000 target cells per well.\nBackground lysis on control 18neo fibroblasts in the absence of peptide was less than 8%. SEM of triplicate wells was less than 7.2% of the mean."}, "HIV-1 IIIB": {"test_system": "HIV-1 IIIB", "assay": "Neutralization of HIV-1 IIIB by immune sera, quantitative infectivity microassay using CEM-SS cells", "format": "in vivo", "settings": "31 days after single immunization with 20 nanomole peptide", "protocol": "(§1) Immunizations. Mice were immunized intraperitoneally with 20 nanomoles of each peptide emulsified 1:1 in Freund's Complete Adjuvant (CFA). At days 21 and 31 post immunization blood was drawn by retroorbital bleed, allowed to clot and the serum removed and frozen at −20° C.\nNeutralization assays of HIV-1. The quantitative infectivity microassay using CEM-SS cells was performed as described previously (52). […] The mixtures were added to duplicate wells containing 5×10^4 DEAE-dextran treated CEM-SS cells for 1 h at 37° C., after which the virus-antibody mixtures were removed and replaced with medium, and the cells cultured only in complete medium for 5 days (for HIV-1 IIIB) or 4 days (for HIV-1 MN, determined to be optimal for each virus strain) at 37° C. in 5% CO2. Units of infectious virus were quantitated by subsequent syncytia formation of infected cells under an inverted microscope. […] The assay measures neutralization of cell-free virus in the first incubation, not inhibition of syncytium formation, which is only the readout for enumerating infectious virus. […]"}, "Peptide 18": {"test_system": "Peptide 18", "settings": "for ELISA: Mean p18 Specific Absorbance ± S.E.M.: 31 days after single immunization with 20 nanomole peptide, 5 mouse sera at 1:1000 serum dilution", "protocol": "ELISA. Wells of round bottom flexible PVC microtiter plates (#3912 Falcon Labware, Oxnard, Calif.) were coated overnight at 4° C. with 100 μl of 10 μM Peptide 18, substituted peptide 18, cluster peptide 3, cluster peptide 6, 0.2 μg/ml recombinant gp 120 (ABT, Advanced Biotechnologies, Mass.) or 2 μM sperm whale myoglobin in 0.1 M carbonate buffer pH 9.6. […] The plates were blocked with 1% BSA in phosphate buffered saline (PBS) for 1-1.5 h. at 4° C. and washed with PBS containing 0.05% Tween 20 and 1% BSA (PBSTB). Next, 100 μl of test serum was added to duplicate wells and incubated for 1-1.5 h. at 4° C. Test sera were assayed at 10 fold dilutions in PBSTB ranging from 1:100-1:10,000. The wells were then washed with 200 μl PBSTB 10 times using an automatic plate washer (BioRad Model 1550) and incubated for 1 h at 4° C. with 100 μl alkaline phosphatase-conjugated goat anti-mouse IgG (Promega, Madison, Wis.) diluted 1:7500 in PBSTB. After 10 washes, bound antibodies were detected by the addition of 100 μl of 1 mg/ml paranitrophenyl phosphate as substrate. The optical density at 405 nm was read with an ELISA reader. Specific absorbance was determined as the mean optical density at 405 nm on the relevant antigen coated wells minus the optical density 405 nm on nonrelevant sperm whale myoglobin coated wells.\nas §1"}}, "note": "Where two headings read alike, the source gives them in different places.", "data": [{"sequence": "AVAEGTDRVIEVVQGAYRAIRHIPRRIRQGLER [PCLUS6]", "values": [{"measurement": "tested cases with significant IL-2 responses", "setting": "[1]", "value": 58, "unit": "%"}]}, {"sequence": "EQMHEDIISLWDQSLKPCVK [PCLUS 1]", "values": [{"measurement": "donors in which IL-2 production was stimulated", "setting": "[1]; HIV seropositive, flu-positive donors", "value": "23 of 36"}, {"measurement": "tested cases with significant IL-2 responses", "setting": "[1]", "value": 64, "unit": "%"}]}, {"sequence": "KQIINMWQEVGKAMYAPPISGQIR [PCLUS3]", "values": [{"measurement": "tested cases with significant IL-2 responses", "setting": "[1]", "value": 73, "unit": "%"}]}, {"sequence": "RDNWRSELYKYKVVKIEPLGVAPT [PCLUS4]", "values": [{"measurement": "tested cases with significant IL-2 responses", "setting": "[1]", "value": 52, "unit": "%"}, {"measurement": "induction of CTL activity on in vitro restimulation (in words)", "setting": "[2]", "value": "did not induce any CTL activity"}]}, {"sequence": "RIQRGPGRAFVTIGK [Peptide P18]", "values": [{"measurement": "induction of CTL activity on in vitro restimulation (in words)", "setting": "[2]", "value": "not"}, {"measurement": "CTL activity, linkage requirement experiment (in words)", "setting": "[3]; B10.D2 (PCLUS3 series) or B10.A(5R) (PCLUS4 series) mice, QS21, restimulated with 0.1 μM P18 and rIL2", "value": "negligible"}, {"measurement": "CTL activity after single immunization in QS21 (in words)", "setting": "[3]; B10.D2, B10.A(5R), B10.S(9R) mice, restimulated with P18, E:T up to 60:1", "value": "only marginal CTL activity"}, {"measurement": "No. of mice with positive neutralizing titers/total tested", "setting": "HIV-1 IIIB; B10.BR or B10.A (A^kE^k) mice", "value": "(0/5)"}, {"measurement": "No. of mice with positive neutralizing titers/total tested", "setting": "HIV-1 IIIB; BALB/c or B10.D2 (A^dE^d) mice", "value": "(0/5)"}, {"measurement": "ELISA: Mean p18 Specific Absorbance ± S.E.M.", "setting": "Peptide 18; B10.A(5R) (A^bE^b) mice", "value": 0.00}, {"measurement": "ELISA: Mean p18 Specific Absorbance ± S.E.M.", "setting": "Peptide 18; B10.BR or B10.A (A^kE^k) mice", "value": 0.00}, {"measurement": "ELISA: Mean p18 Specific Absorbance ± S.E.M.", "setting": "Peptide 18; B10.HTT (A^aE^a) mice", "value": 0.00}, {"measurement": "ELISA: Mean p18 Specific Absorbance ± S.E.M.", "setting": "Peptide 18; BALB/c or B10.D2 (A^dE^d) mice", "value": 0.00}, {"measurement": "peptide 18 specific antibody response (in words)", "setting": "Peptide 18; mice of four strains immunized with 20 nanomoles of construct", "value": "no peptide 18 specific antibody was detected"}]}]}
